# Legend:
# MMP-9 = experiment: MMP-9-mediated gelatinolysis in astrocytes induced by LPS or thrombin (zymographic analysis); type: cell-based, rat
# From the text: It has been known that the MMP-9-mediated gelatinolysis in astrocytes can be induced by LPS in a concentration dependent manner. The preparation and culture of astrocytes can be seen in “Preparation of separate astroglial and oligodendroglial cell cultures from rat cerebral tissue. J. Cell Biol. 85:890-902 (1980)” and “A potent antioxidant, lycopene, affords neuroprotection against microglia activation and focal cerebral ischemia in rats. In Vivo. 18:351-356 (2004)”, which are entirely incorporated hereinto by reference.
# Astrocytes were respectively treated with vehicle (i.e., 0.2% ethanol) or ergostatrien-3β-ol (1, 5 and 10 μM) for 15 minutes, and then induced by LPS (500 ng/ml) or thrombin (10 units/ml) for 24 hours to induce the activation of MMP-9 in the astrocytes.
# ICH mouse model [1] = experiment: Neurobehavioral test in collagenase-induced ICH mouse model; type: in vivo; conditions: 48 hours after ICH; 30 mg/kg orally; minimum 3, maximum 18; ICH group 9.6±1.2
# Description: Male C57B2/6J mice (each weighs about 23 to 28 g) were anesthetized with chloral hydrate (400 mg/kg), and then a 1 mm burr hole was drilled 2 mm lateral to the midline and 0.3 mm anterior to the bregma of each mouse. Type VII-S collagenase (0.02 unit dissolved in 1 μl saline) was infused into the area of the caudate/putamen at a rate of 0.2 μl/min for 5 minutes. After an additional period of 5 minutes, the burr hole was occluded. The mice were allowed to recover with a controlled heating lamp and a controlled heating pad (37° C.) and an ICH mouse model was obtained, hereinafter referred to as “ICH group.” Additionally, a pseudo-animal that was handled with the same mode but only infused with an equal volume of normal saline (NS) was obtained, hereinafter referred to as “NS group.”
# At 30 minutes post-collagenase injection, ergostatrien-3β-ol suspended in a 0.5% (w/v) vehicle (e.g., carboxymethyl cellulose (CMC)) was orally administered to the mouse at a dosage of 30 mg/kg. […]
# At 48 hours after ICH was induced by collagenase, three groups of mice mentioned in Example 4 (i.e., the “NS group,” “ICH group” and “ICH+ergostatrien-3β-ol group”) were analyzed by a neurobehavioral test, which includes six tests for spontaneous activity, symmetry in the movement of four limbs, forepaw outstretching, climbing, body proprioception, and response to vibrissae touch. […]
# ICH mouse model [2] = experiment: Brain water content in collagenase-induced ICH mouse model; type: in vivo; conditions: ipsilateral hemisphere, 48 hours after ICH; 30 mg/kg orally at 30 minutes post-collagenase; ICH group 81.2±0.3%, NS group 78.7±0.1
# Description: Male C57B2/6J mice (each weighs about 23 to 28 g) were anesthetized with chloral hydrate (400 mg/kg), and then a 1 mm burr hole was drilled 2 mm lateral to the midline and 0.3 mm anterior to the bregma of each mouse. Type VII-S collagenase (0.02 unit dissolved in 1 μl saline) was infused into the area of the caudate/putamen at a rate of 0.2 μl/min for 5 minutes. After an additional period of 5 minutes, the burr hole was occluded. The mice were allowed to recover with a controlled heating lamp and a controlled heating pad (37° C.) and an ICH mouse model was obtained, hereinafter referred to as “ICH group.” Additionally, a pseudo-animal that was handled with the same mode but only infused with an equal volume of normal saline (NS) was obtained, hereinafter referred to as “NS group.” […]
# After wet weights of the brain tissues of ipsilateral hemisphere and contralateral hemisphere of the “NS group,” “ICH group” and “ICH+ergostatrien-3β-ol group”) mice were measured, the brain tissues of the ipsilateral hemisphere and contralateral hemisphere were dried at 100° C. for 24 hours to obtain the dry weights. The brain water content was calculated by the following formula: (wet weight−dry weight)/wet weight×100%.
# JNK MAPK = experiment: Phosphorylation of JNK MAPK in LPS-activated BV-2 microglia cells (western blot); type: cell-based, mouse; conditions: LPS-induced, vehicle group 5.5±0.3 fold
# Description: (§1) BV-2 cells (i.e., a mouse microglial cell line) were cultured in DMEM at a concentration of 2×10^5 cells per mL of the DMEM at 37° C. with 5% CO2 for 16 hours, wherein the DMEM was supplemented with deactivated fetal bovine serum (FBS, 10%), penicillin G (100 units/ml)/streptomycin (100 μg/ml), L-glutamine (3.65 mM), 4-(2-hydroxyethyl)-1-piperazineethanesulfonic acid (HEPES, 18 mM) and NaHCO3 (23.57 mM). […] Then, BV-2 cells were activated by being treated with lipopolysaccharide (LPS, 150 ng/ml) for 24 hours. BV-2 cells were lysed by a cell lysis buffer and centrifuged.
# COX-2 = COX-2 expression in LPS-activated BV-2 microglia cells (western blot); type: cell-based, mouse; conditions: for relative expression rate of COX-2, fold of that of the control group: LPS 150 ng/ml 24 hours, vehicle group 8.34±0.05-fold; for inhibition ratio of COX-2 expression: LPS 150 ng/ml
# Description: as §1
compound,measurement,setting,value
CC(C)[C@@H](C)/C=C/[C@@H](C)C1CCC2C3=CCC4C[C@@H](O)CC[C@]4(C)C3=CC[C@@]21C (stereo partly shown),"MMP-9-mediated gelatinolysis, fold of that of the control group","MMP-9; LPS 500 ng/ml 24 hours, first of three values, 1 μM per b67 (b68 lists 0.5, 1, 5 or 10 μM), vehicle group 3.3±0.4-fold",2.9±0.3 fold
same,"MMP-9-mediated gelatinolysis, fold of that of the control group","MMP-9; LPS 500 ng/ml 24 hours, second of three values, 5 μM, vehicle group 3.3±0.4-fold",2.5±0.3 fold
same,"MMP-9-mediated gelatinolysis, fold of that of the control group","MMP-9; LPS 500 ng/ml 24 hours, third of three values, 10 μM, vehicle group 3.3±0.4-fold",2.1±0.3 fold
same,"MMP-9-mediated gelatinolysis, fold of that of the control group","MMP-9; thrombin 10 units/ml 24 hours, 5 μM, vehicle group 5.5±0.4-fold",5.1±0.4 fold
same,"MMP-9-mediated gelatinolysis, fold of that of the control group","MMP-9; thrombin 10 units/ml 24 hours, 10 μM, vehicle group 5.5±0.4-fold",3.3±0.8 fold
same,neurobehavioral score,ICH mouse model [1],13.4±1.1
same,brain water content,ICH mouse model [2],80.4±0.3%
same,"phosphorylation level of JNK MAPK, fold of that of the control group",JNK MAPK; 0.5 μM pre-treatment,5.5±0.9 fold
same,"phosphorylation level of JNK MAPK, fold of that of the control group",JNK MAPK; 1 μM pre-treatment,3.9±0.2 fold
same,"phosphorylation level of JNK MAPK, fold of that of the control group",JNK MAPK; 5 μM pre-treatment,3.5±0.6 fold
same,"phosphorylation level of JNK MAPK, fold of that of the control group",JNK MAPK; 10 μM pre-treatment,2.4±0.3 fold
same,"relative expression rate of COX-2, fold of that of the control group",COX-2; 0.5 μM pre-treatment 15 minutes,4.80±0.75 fold
same,inhibition ratio of COX-2 expression,COX-2; 0.5 μM,74%
same,"relative expression rate of COX-2, fold of that of the control group",COX-2; 1 μM pre-treatment 15 minutes,3.91±0.64 fold
same,inhibition ratio of COX-2 expression,COX-2; 1 μM,94%
same,"relative expression rate of COX-2, fold of that of the control group",COX-2; 5 μM pre-treatment 15 minutes,1.92±0.98 fold
same,inhibition ratio of COX-2 expression,COX-2; 5 μM,98%
same,"relative expression rate of COX-2, fold of that of the control group",COX-2; 10 μM pre-treatment 15 minutes,2.14±0.86 fold
same,inhibition ratio of COX-2 expression,COX-2; 10 μM,106%

# Reference: patent US20160151389A1 (priority 2014, published 2016)
